{"source": "PubChem BioAssay (NCI)", "experiment_in_all_cases": "NCI anticancer screen, dose series, 48 h", "key": {"T-47D breast": {"test_system": "T-47D breast"}, "A498 renal": {"test_system": "A498 renal"}, "786-0 renal": {"test_system": "786-0 renal"}, "SK-OV-3 ovarian": {"test_system": "SK-OV-3 ovarian"}, "SK-MEL-28 melanoma": {"test_system": "SK-MEL-28 melanoma"}, "HOP-62 NSCLC": {"test_system": "HOP-62 NSCLC"}, "CAKI-1 renal": {"test_system": "CAKI-1 renal"}, "SW-620 colon": {"test_system": "SW-620 colon"}, "SF-295 CNS": {"test_system": "SF-295 CNS"}, "UACC-62 melanoma": {"test_system": "UACC-62 melanoma"}, "SF-539 CNS": {"test_system": "SF-539 CNS"}, "MDA-MB-231 breast": {"test_system": "MDA-MB-231 breast"}, "NCI-H460 lung": {"test_system": "NCI-H460 lung"}, "RXF 393 renal": {"test_system": "RXF 393 renal"}, "UACC-257 melanoma": {"test_system": "UACC-257 melanoma"}, "SNB-19 CNS": {"test_system": "SNB-19 CNS"}, "MCF7 breast": {"test_system": "MCF7 breast"}, "HCT-15 colon": {"test_system": "HCT-15 colon"}, "HOP-92 NSCLC": {"test_system": "HOP-92 NSCLC"}, "PC-3 prostate": {"test_system": "PC-3 prostate"}, "SF-268 CNS": {"test_system": "SF-268 CNS"}, "COLO 205 colon": {"test_system": "COLO 205 colon"}, "HS 578T breast": {"test_system": "HS 578T breast"}, "HT29 colon": {"test_system": "HT29 colon"}, "U251 CNS": {"test_system": "U251 CNS"}, "NCI-H23 lung": {"test_system": "NCI-H23 lung"}, "TK-10 renal": {"test_system": "TK-10 renal"}, "KM12 colon": {"test_system": "KM12 colon"}, "SNB-75 CNS": {"test_system": "SNB-75 CNS"}, "LOX IMVI melanoma": {"test_system": "LOX IMVI melanoma"}, "DU-145 prostate": {"test_system": "DU-145 prostate"}, "ACHN renal": {"test_system": "ACHN renal"}, "OVCAR-5 ovarian": {"test_system": "OVCAR-5 ovarian"}, "K-562 leukemia": {"test_system": "K-562 leukemia"}, "HCT-116 colon": {"test_system": "HCT-116 colon"}, "SK-MEL-5 melanoma": {"test_system": "SK-MEL-5 melanoma"}, "A549 NSCLC": {"test_system": "A549 NSCLC"}, "SN12C renal": {"test_system": "SN12C renal"}, "MDA-MB-435": {"test_system": "MDA-MB-435"}, "HCC-2998 colon": {"test_system": "HCC-2998 colon"}, "M14 melanoma": {"test_system": "M14 melanoma"}, "BT-549 breast": {"test_system": "BT-549 breast"}, "MALME-3M melanoma": {"test_system": "MALME-3M melanoma"}, "CCRF-CEM leukemia": {"test_system": "CCRF-CEM leukemia"}, "UO-31 renal": {"test_system": "UO-31 renal"}, "IGROV1 ovarian": {"test_system": "IGROV1 ovarian"}, "OVCAR-3 ovarian": {"test_system": "OVCAR-3 ovarian"}, "HL-60(TB) leukemia": {"test_system": "HL-60(TB) leukemia"}}, "note": "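In this assay, cells in 96-well plates receive the compound at five concentrations for 48 hours. Endpoints are linearly interpolated between the surrounding concentrations. The concentration for 50% growth inhibition is given as GI50. TGI: total growth inhibition.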", "data": [{"smiles": "Nc1ncc(-c2cnn(C3CCNCC3)c2)cc1-c1nc2cc(Cl)ccc2o1", "values": [{"measurement": "GI50", "setting": "T-47D breast", "result": 1620, "unit": "nM"}, {"measurement": "TGI", "setting": "T-47D breast", "result": 3340, "unit": "nM"}, {"measurement": "GI50", "setting": "A498 renal", "result": 1710, "unit": "nM"}, {"measurement": "TGI", "setting": "A498 renal", "result": 3120, "unit": "nM"}, {"measurement": "GI50", "setting": "786-0 renal", "result": 1710, "unit": "nM"}, {"measurement": "TGI", "setting": "786-0 renal", "result": 3160, "unit": "nM"}, {"measurement": "GI50", "setting": "SK-OV-3 ovarian", "result": 1760, "unit": "nM"}, {"measurement": "TGI", "setting": "SK-OV-3 ovarian", "result": 3220, "unit": "nM"}, {"measurement": "GI50", "setting": "SK-MEL-28 melanoma", "result": 1300, "unit": "nM"}, {"measurement": "TGI", "setting": "SK-MEL-28 melanoma", "result": 2680, "unit": "nM"}, {"measurement": "GI50", "setting": "HOP-62 NSCLC", "result": 1610, "unit": "nM"}, {"measurement": "TGI", "setting": "HOP-62 NSCLC", "result": 3100, "unit": "nM"}, {"measurement": "GI50", "setting": "CAKI-1 renal", "result": 1580, "unit": "nM"}, {"measurement": "TGI", "setting": "CAKI-1 renal", "result": 3090, "unit": "nM"}, {"measurement": "GI50", "setting": "SW-620 colon", "result": 363, "unit": "nM"}, {"measurement": "TGI", "setting": "SW-620 colon", "result": 1340, "unit": "nM"}, {"measurement": "GI50", "setting": "SF-295 CNS", "result": 1960, "unit": "nM"}, {"measurement": "TGI", "setting": "SF-295 CNS", "result": 3680, "unit": "nM"}, {"measurement": "GI50", "setting": "UACC-62 melanoma", "result": 1960, "unit": "nM"}, {"measurement": "TGI", "setting": "UACC-62 melanoma", "result": 3650, "unit": "nM"}, {"measurement": "GI50", "setting": "SF-539 CNS", "result": 1550, "unit": "nM"}, {"measurement": "TGI", "setting": "SF-539 CNS", "result": 2910, "unit": "nM"}, {"measurement": "GI50", "setting": "MDA-MB-231 breast", "result": 1660, "unit": "nM"}, {"measurement": "TGI", "setting": "MDA-MB-231 breast", "result": 3230, "unit": "nM"}, {"measurement": "GI50", "setting": "NCI-H460 lung", "result": 1680, "unit": "nM"}, {"measurement": "TGI", "setting": "NCI-H460 lung", "result": 3280, "unit": "nM"}, {"measurement": "GI50", "setting": "RXF 393 renal", "result": 1550, "unit": "nM"}, {"measurement": "TGI", "setting": "RXF 393 renal", "result": 2920, "unit": "nM"}, {"measurement": "GI50", "setting": "UACC-257 melanoma", "result": 1290, "unit": "nM"}, {"measurement": "TGI", "setting": "UACC-257 melanoma", "result": 2590, "unit": "nM"}, {"measurement": "GI50", "setting": "SNB-19 CNS", "result": 1560, "unit": "nM"}, {"measurement": "TGI", "setting": "SNB-19 CNS", "result": 2970, "unit": "nM"}, {"measurement": "GI50", "setting": "MCF7 breast", "result": 1140, "unit": "nM"}, {"measurement": "TGI", "setting": "MCF7 breast", "result": 2680, "unit": "nM"}, {"measurement": "GI50", "setting": "HCT-15 colon", "result": 495, "unit": "nM"}, {"measurement": "TGI", "setting": "HCT-15 colon", "result": 1710, "unit": "nM"}, {"measurement": "GI50", "setting": "HOP-92 NSCLC", "result": 808, "unit": "nM"}, {"measurement": "TGI", "setting": "HOP-92 NSCLC", "result": 2140, "unit": "nM"}, {"measurement": "GI50", "setting": "PC-3 prostate", "result": 1290, "unit": "nM"}, {"measurement": "TGI", "setting": "PC-3 prostate", "result": 2770, "unit": "nM"}, {"measurement": "GI50", "setting": "SF-268 CNS", "result": 1380, "unit": "nM"}, {"measurement": "TGI", "setting": "SF-268 CNS", "result": 2800, "unit": "nM"}, {"measurement": "GI50", "setting": "COLO 205 colon", "result": 1410, "unit": "nM"}, {"measurement": "TGI", "setting": "COLO 205 colon", "result": 2910, "unit": "nM"}, {"measurement": "GI50", "setting": "HS 578T breast", "result": 385, "unit": "nM"}, {"measurement": "TGI", "setting": "HS 578T breast", "result": 1770, "unit": "nM"}, {"measurement": "GI50", "setting": "HT29 colon", "result": 352, "unit": "nM"}, {"measurement": "TGI", "setting": "HT29 colon", "result": 1250, "unit": "nM"}, {"measurement": "GI50", "setting": "U251 CNS", "result": 1380, "unit": "nM"}, {"measurement": "TGI", "setting": "U251 CNS", "result": 2730, "unit": "nM"}, {"measurement": "GI50", "setting": "NCI-H23 lung", "result": 1620, "unit": "nM"}, {"measurement": "TGI", "setting": "NCI-H23 lung", "result": 3140, "unit": "nM"}, {"measurement": "GI50", "setting": "TK-10 renal", "result": 1940, "unit": "nM"}, {"measurement": "TGI", "setting": "TK-10 renal", "result": 3580, "unit": "nM"}, {"measurement": "GI50", "setting": "KM12 colon", "result": 392, "unit": "nM"}, {"measurement": "TGI", "setting": "KM12 colon", "result": 1710, "unit": "nM"}, {"measurement": "GI50", "setting": "SNB-75 CNS", "result": 1650, "unit": "nM"}, {"measurement": "TGI", "setting": "SNB-75 CNS", "result": 3060, "unit": "nM"}, {"measurement": "GI50", "setting": "LOX IMVI melanoma", "result": 1550, "unit": "nM"}, {"measurement": "TGI", "setting": "LOX IMVI melanoma", "result": 3070, "unit": "nM"}, {"measurement": "GI50", "setting": "DU-145 prostate", "result": 1630, "unit": "nM"}, {"measurement": "TGI", "setting": "DU-145 prostate", "result": 3080, "unit": "nM"}, {"measurement": "GI50", "setting": "ACHN renal", "result": 1650, "unit": "nM"}, {"measurement": "TGI", "setting": "ACHN renal", "result": 3080, "unit": "nM"}, {"measurement": "GI50", "setting": "OVCAR-5 ovarian", "result": 1770, "unit": "nM"}, {"measurement": "TGI", "setting": "OVCAR-5 ovarian", "result": 3220, "unit": "nM"}, {"measurement": "GI50", "setting": "K-562 leukemia", "result": 218, "unit": "nM"}, {"measurement": "TGI", "setting": "K-562 leukemia", "result": 444, "unit": "nM"}, {"measurement": "GI50", "setting": "HCT-116 colon", "result": 851, "unit": "nM"}, {"measurement": "TGI", "setting": "HCT-116 colon", "result": 2130, "unit": "nM"}, {"measurement": "GI50", "setting": "SK-MEL-5 melanoma", "result": 1660, "unit": "nM"}, {"measurement": "TGI", "setting": "SK-MEL-5 melanoma", "result": 3080, "unit": "nM"}, {"measurement": "GI50", "setting": "A549 NSCLC", "result": 1530, "unit": "nM"}, {"measurement": "TGI", "setting": "A549 NSCLC", "result": 3110, "unit": "nM"}, {"measurement": "GI50", "setting": "SN12C renal", "result": 1240, "unit": "nM"}, {"measurement": "TGI", "setting": "SN12C renal", "result": 2710, "unit": "nM"}, {"measurement": "GI50", "setting": "MDA-MB-435", "result": 1770, "unit": "nM"}, {"measurement": "TGI", "setting": "MDA-MB-435", "result": 3360, "unit": "nM"}, {"measurement": "GI50", "setting": "HCC-2998 colon", "result": 1470, "unit": "nM"}, {"measurement": "TGI", "setting": "HCC-2998 colon", "result": 2820, "unit": "nM"}, {"measurement": "GI50", "setting": "M14 melanoma", "result": 1790, "unit": "nM"}, {"measurement": "TGI", "setting": "M14 melanoma", "result": 3250, "unit": "nM"}, {"measurement": "GI50", "setting": "BT-549 breast", "result": 1610, "unit": "nM"}, {"measurement": "TGI", "setting": "BT-549 breast", "result": 3140, "unit": "nM"}, {"measurement": "GI50", "setting": "MALME-3M melanoma", "result": 1710, "unit": "nM"}, {"measurement": "TGI", "setting": "MALME-3M melanoma", "result": 3370, "unit": "nM"}, {"measurement": "GI50", "setting": "CCRF-CEM leukemia", "result": 222, "unit": "nM"}, {"measurement": "TGI", "setting": "CCRF-CEM leukemia", "result": 541, "unit": "nM"}, {"measurement": "GI50", "setting": "UO-31 renal", "result": 484, "unit": "nM"}, {"measurement": "TGI", "setting": "UO-31 renal", "result": 1020, "unit": "nM"}, {"measurement": "GI50", "setting": "IGROV1 ovarian", "result": 1040, "unit": "nM"}, {"measurement": "TGI", "setting": "IGROV1 ovarian", "result": 2430, "unit": "nM"}, {"measurement": "GI50", "setting": "OVCAR-3 ovarian", "result": 1730, "unit": "nM"}, {"measurement": "TGI", "setting": "OVCAR-3 ovarian", "result": 3260, "unit": "nM"}, {"measurement": "GI50", "setting": "HL-60(TB) leukemia", "result": 1560, "unit": "nM"}, {"measurement": "TGI", "setting": "HL-60(TB) leukemia", "result": 3200, "unit": "nM"}]}]}
